We go through 25 compounds from US20080020973A1 (priority 2004, published 2008).

Experiment [1] addresses T1, vaccinia DNA topoisomerase IB (vTopo) (Vaccinia virus, UniProt P68698). The experiment in a line: biochemical. As to conditions: for remaining activity at 100 µM: 0.5 h, read-out: % vTopo activity; for % Inhibition (RNAse HTS): 100 µM.
Experiment [2] addresses T1, vaccinia DNA topoisomerase IB (vTopo). The experiment in a line: biochemical.
Experiment [3] deals with T2, vTopo (Vaccinia virus, UniProt P68698).
T2 construct: made in house
As to conditions: inhibition of vTopo; cited from earlier work.

Another experiment concerns the target T3, human topo IB enzyme (Homo sapiens, UniProt P11387).
T3 sequence (P11387 1-765): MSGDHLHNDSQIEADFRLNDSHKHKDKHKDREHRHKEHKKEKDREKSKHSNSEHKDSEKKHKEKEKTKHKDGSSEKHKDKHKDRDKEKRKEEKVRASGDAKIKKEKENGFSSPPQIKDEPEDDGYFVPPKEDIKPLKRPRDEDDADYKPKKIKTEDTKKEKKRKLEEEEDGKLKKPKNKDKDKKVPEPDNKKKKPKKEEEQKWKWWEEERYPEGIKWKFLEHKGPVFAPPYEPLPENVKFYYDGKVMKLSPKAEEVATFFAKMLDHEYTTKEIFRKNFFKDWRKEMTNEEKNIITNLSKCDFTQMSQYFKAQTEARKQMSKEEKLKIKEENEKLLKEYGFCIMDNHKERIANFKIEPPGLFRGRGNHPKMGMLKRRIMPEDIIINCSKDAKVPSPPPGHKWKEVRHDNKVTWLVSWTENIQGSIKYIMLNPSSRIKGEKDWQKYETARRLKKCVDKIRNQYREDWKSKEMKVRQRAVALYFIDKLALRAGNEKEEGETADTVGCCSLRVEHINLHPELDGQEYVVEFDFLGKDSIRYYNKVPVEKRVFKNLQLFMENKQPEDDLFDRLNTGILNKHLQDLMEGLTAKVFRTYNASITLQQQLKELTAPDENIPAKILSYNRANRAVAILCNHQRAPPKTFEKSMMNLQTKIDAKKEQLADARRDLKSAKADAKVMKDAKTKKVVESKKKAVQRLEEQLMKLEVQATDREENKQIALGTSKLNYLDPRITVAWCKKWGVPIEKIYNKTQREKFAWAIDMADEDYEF
Conditions: cited from earlier work.

The target of experiment [4] is human topoisomerase type IB (hTopo) (Homo sapiens, UniProt P11387). The experiment in a line: biochemical. The class given is biochemical.
In the next experiment the target is T4, Y274F vTopo (Vaccinia virus, UniProt P68698, Y274F).
T4 construct: made in house
The class given is binding.

In experiment [5] the target is T2, vTopo. The class given is biochemical.
The target in experiment [6] is T2, vTopo. The format is biochemical. The source holds these as a separate data set.
The target in experiment [7] is T2, vTopo. The format is biochemical. As to conditions: equilibrium cleavage.
Where [8] appears, read: read-out: % Inhibition (RNAse HTS).
[9] abbreviates: read-out: % Inhibition (plasmid SC release assay).

Structures are written as SMILES. Read-outs that look alike come from different tables or passages of the source.

For orientation: inhibition means the share of the control response that was lost under treatment. `O=C(O)c1ccc2ccc(-c3cccc4cccc(C(=O)O)c34)cc2c1` [NSC 7810]: in [1] (setting [8]), the inhibition at 2.5 µM came to 100%. Also, the inhibition at 10 µM in [2] (setting [9]) was 100%.

For orientation: Ki means a dissociation constant, usually derived from enzyme kinetics or from competition with a known ligand. For `CO[C@@H]1[C@@H](OC(N)=O)[C@@H](O)[C@H](Oc2ccc3c(O)c(NC(=O)c4ccc(O)c(CC=C(C)C)c4)c(=O)oc3c2C)OC1(C)C` [novobiocin], the “inhibition of the relaxation reaction” value in experiment [2] was “complete inhibition”. At vTopo [3], the Ki is 325 µM. In addition, the “inhibition of human topo IB enzyme” value on human topo IB enzyme is on record as “no inhibition”.

On to `Cc1cc(N)c2cc(NC(=O)Nc3ccc4nc(C)cc(N)c4c3)ccc2n1` [NSC 12155], for which, in experiment [1] (setting [8]), the inhibition at 2.5 µM is 100%. For the same compound, the inhibition at 0.5 µM in experiment [2] (setting [9]) amounted to 40%.

As to `Oc1cc(O)c2c(c1)OC(c1ccc(O)c(O)c1)C(O)C2c1c(O)cc(O)c2c1OC(c1ccc(O)c(O)c1)C(O)C2` (stereo not shown) [NSC 143099], the inhibition at 1 µM in [1] (setting [8]) was 100%. In addition, in experiment [2] (setting [9]), the inhibition at 5 µM worked out at 100%.

On to `Oc1cc(O)c2c(c1)OC(c1ccc(O)c(O)c1)C(OC1(c3cc(O)c(O)c(O)c3)Oc3cc(O)cc(O)c3C(O)C1O)C2` (stereo not shown) [NSC 143101], for which the results for the inhibition at 0.5 µM in experiment [1] (setting [8]) and in experiment [2] (setting [9]) were 100% and 70%, respectively.

For `C/C(=N\C1CCCCC1)c1ccccc1O` [NSC 120917], in [1], the remaining activity at 100 µM stood at 28%. The “inhibition of the relaxation reaction” value in experiment [2] is “complete inhibition”.

The IC50 is the concentration that gives 50% inhibition. For `O=C(O)C(=O)Cc1ccc2c(c1)OCO2` [NSC 112983], in experiment [1], the IC50 was roughly 2 µM, the affinity corresponds to a Ki of 1.6 ± 0.6 µM and the remaining activity at 100 µM turned out to be 9%. Besides, the inhibition at 8 µM in experiment [1] (read-out: inhibition of the ribonuclease reaction rate) is roughly 75%. For the same compound, in [2], the IC50 is roughly 7 µM and the “inhibition of the supercoil relaxation activity of vTopo” value is on record as “complete inhibition”. For the same compound, the “inhibition of the hTopo supercoil relaxation reaction” value in [4] is reported as “no detectable inhibition”. Further, the “anisotropy of Y274F-DNA complex in presence of compound” value on Y274F vTopo is recorded as “unchanged”. The “effect on the single-turnover cleavage rate” value on vTopo [5] (8 μM) is on record as “no effect”. Moreover, the cleavage rate kcl on vTopo [5] (in the presence of 8 μM 112983 (2.3±0.06 in its absence)) was found to be 1.8 ± 0.05 s⁻¹. For the same compound, on vTopo [6], the “% covalent complex remaining” value was found to be 7% and the “decrease of fraction covalent complex remaining” value stood at 50%. The “decrease of percent covalently bound DNA” value at vTopo [7] (100 μM compound) is on record as 50%. For the same compound, the “decrease in the amount of covalent complex” value on vTopo [7] (100 μM, vs control without compound) is listed as 2 fold.

As for `O=C(O)C(O)(c1ccc(-c2ccccc2)cc1)c1ccc(-c2ccccc2)cc1` [NSC 28086], the inhibition at 1 µM in experiment [1] (setting [8]) came out at 100%. In experiment [2] (setting [9]), the inhibition at 5 µM is 100%.

For `Cc1ccc(S(=O)(=O)C2C(C3COC(C)(C)O3)OC3OC(C)(C)OC32)cc1` (stereo not shown) [NSC 14163], the inhibition at 2.5 µM in experiment [1] (setting [8]) amounted to 100%. In experiment [2] (setting [9]), the inhibition at 5 µM worked out at 50%. The compound also came in with a Selectivity in experiment [4] greater than 3333. In addition, the inhibition at 20 µM in [4] (setting [9]) turned out to be 0%.

Turning to `CC(=O)c1ccccc1C(=O)c1ccc(C(=O)O)c(C(=O)O)c1` [NSC 28620], in [1] (setting [8]), the inhibition at 1 µM came to 100%. For the same compound, the inhibition at 5 µM in [2] (setting [9]) is 100%.

Turning to `CC(CCC(=O)O)(c1cc(Br)c(O)c(Br)c1)c1cc(Br)c(O)c(Br)c1` [NSC 21588], in experiment [1] (setting [8]), the inhibition at 1.2 µM is 100%. In experiment [2] (setting [9]), the inhibition at 5 µM was determined as 100%.

Consider `C[C@]12CCC(=O)C=C1CCC1[C@@H]3CC[C@H](C(=O)OS(=O)(=O)c4ccc(Br)cc4)C3CC[C@@H]12` (stereo partly shown) [NSC 88915], for which the inhibition at 0.5 µM in [1] (setting [8]) was determined as 100%. For the same compound, the inhibition at 0.006 µM in experiment [2] (setting [9]) amounted to 50%. This compound also showed a Selectivity in [4] of 833. The inhibition at 5 µM in experiment [4] (setting [9]) turned out to be 50%.

For the compound `CN(C)CS/C(N)=N/[C@H](O)C(Cl)(Cl)Cl` [NSC 14555], the “% vTopo activity” value in experiment [1] was determined as 28%. In experiment [2], the “inhibition of the relaxation reaction” value is “complete inhibition”.

Consider `N#C/C(=C\Nc1ccccn1)C(=O)c1ccco1` [NSC 379552], for which the remaining activity at 100 µM in experiment [1] came to 7%.

For `CN(C)Cc1cc(O)c(O)c(CN(C)C)c1` [NSC 39225], the remaining activity at 100 µM in [1] stood at 52%.

Take `O=C1C=C/C(=N/c2cccc3c(/N=C4/C=CC(=O)O4)cccc23)O1` [NSC 69575]: in experiment [1] (setting [8]), the inhibition at 100 µM was determined as 100%.

Take `O=C(O)CCc1ccc(-c2ccccc2)[nH]1` [NSC 75600]: the remaining activity at 100 µM in [1] was 35%.

On to `CC[C@@]1(O)C(=O)OCc2c1cc1n(c2=O)Cc2cc3ccccc3nc2-1` [NSC 100880], for which the “% Inhibition (RNAse HTS)” value in experiment [1] is recorded as “Partial @100 μM”.

Turning to `COP(OCc1ccccc1)Oc1cccc2c1C(=O)c1cn3c(c1C2=O)C(C)c1ccccc1C3` (stereo not shown) [NSC 611615], the inhibition at 100 µM in [1] (setting [8]) amounted to 100%.

As to `O=C(O)CSCc1ccc(N=C=S)c(O)c1` [NSC 403376], in experiment [1], the remaining activity at 100 µM was found to be 45%.

With `Cc1ccc2nc(-c3ccc(NC(=O)c4ccc(N)cc4)c(S(=O)(=O)O)c3)sc2c1` [NSC 26699], the inhibition at 100 µM in experiment [1] (setting [8]) came to 100%.

For the compound `Cc1cc(Cl)nc2ccc(Cc3ccc4nc(Cl)cc(C)c4c3)cc12` [NSC 109451], the “% Inhibition (RNAse HTS)” value in experiment [1] was “Partial @100 μM”.

For `Nc1ccc(S(=O)(=O)c2ccc(NCN3C(=O)NC(=O)C(=O)C3=O)cc2)cc1` [NSC 34238], the inhibition at 100 µM in experiment [1] (setting [8]) turned out to be 100%.

Take `CC(CCC(=O)O)C1CCC2C3CCC4CC(O)CCC4(C)C3CCC12C` (stereo not shown) [NSC 683770]: the inhibition at 100 µM in experiment [1] (setting [8]) was determined as 100%.

Take `Oc1c(Cl)cc(C(c2cc(Cl)c(O)c(Cl)c2)C(c2cc(Cl)c(O)c(Cl)c2)c2cc(Cl)c(O)c(Cl)c2)cc1Cl` [NSC 172033]: the inhibition at 10 µM in experiment [1] (setting [8]) is 100%.
